Test results reported in patent US8658646B2, “Pyrrolopyrazine kinase inhibitors” (Hoffmann-LaRoche Inc., priority 2011, dated 2014).
Several values for one entry are separate records, joined by “and”; a condition that tells them apart may be missing. Identical values can stand only once.

Target: T1, JAK3: Recombinant human kinase domain (Homo sapiens, UniProt P52333)
T1 construct: JAK3: Recombinant human kinase domain from Millipore (Cat #14-629) or prepared; purchased Millipore 14-629
Assay: Determination of IC50 of Janus Kinase (JAK) inhibition, radioactive end-point 33P-ATP assay, JAK3
Type: biochemical
Conditions: ATP 1.5 uM, peptide 50 uM, 20 minutes, read-out: JAK3-INHIB-DR/v1~NO ADDITIVE~Enzyme_Conc = 100

T1 sequence (P52333 822-1111 limits assumed): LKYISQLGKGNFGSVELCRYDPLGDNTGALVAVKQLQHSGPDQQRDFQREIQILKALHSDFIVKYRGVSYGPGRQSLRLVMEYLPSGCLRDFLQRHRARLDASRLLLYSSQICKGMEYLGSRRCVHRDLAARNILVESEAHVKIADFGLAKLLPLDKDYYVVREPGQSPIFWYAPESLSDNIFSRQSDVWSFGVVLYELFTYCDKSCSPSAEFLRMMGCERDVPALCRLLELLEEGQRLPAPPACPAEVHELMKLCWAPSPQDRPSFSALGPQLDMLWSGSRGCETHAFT

SMILES | IC50
C[C@@H](NC(=O)c1c[nH]c2ncc(-c3nn(CC(O)CO)c4cc(Cl)ccc34)nc12)C(=O)N1CC(C#N)C1 (stereo partly drawn) [Example I-94, 2-[6-Chloro-1-(2,3-dihydroxy-propyl)-1H-indazol-3-yl]-5H-pyrrolo[2,3-b]pyrazine-7-carboxylic acid [(R)-2-(3-cyano-azetidin-1-yl)-1-methyl-2-oxo-ethyl)-amide] | 12.6 nM
C[C@H](CO)NC(=O)c1c[nH]c2ncc(-c3nn(C)c4cc(Cl)ccc34)nc12 [Example I-200, 2-(6-Chloro-1-methyl-1H-indazol-3-yl)-5H-pyrrolo[2,3-b]pyrazine-7-carboxylic acid ((R)-2-hydroxy-1-methyl-ethyl)-amide] | 54.5 nM
CC(COc1ccccc1)NC(=O)c1c[nH]c2ncc(-c3nn(C)c4cc(F)ccc34)nc12 (stereo not drawn) [Example I-202, 2-(6-Fluoro-1-methyl-1H-indazol-3-yl)-5H-pyrrolo[2,3-b]pyrazine-7-carboxylic acid (1-methyl-2-phenoxy-ethyl)-amide] | 136 nM
C[C@H](CNC(=O)c1c[nH]c2ncc(-c3nn(C)c4cc(F)ccc34)nc12)C(N)=O [Example I-137, 2-(6-Fluoro-1-methyl-1H-indazol-3-yl)-5H-pyrrolo[2,3-b]pyrazine-7-carboxylic acid ((R)-2-carbamoyl-propyl)-amide] | 132 nM
C[C@H](CN1CC(C#N)C1)NC(=O)c1c[nH]c2ncc(-c3nn(C)c4cc(Cl)ccc34)nc12 [Example I-126, 2-(6-Chloro-1-methyl-1H-indazol-3-yl)-5H-pyrrolo[2,3-b]pyrazine-7-carboxylic acid [(R)-2-(3-cyano-azetidin-1-yl)-1-methyl-ethyl]-amide] | 18.3 nM
Cn1nc(-c2cnc3[nH]cc(C(=O)NC(C)(C)C)c3n2)c2ccc(Cl)cc21 [Example I-305, 2-(6-Chloro-1-methyl-1H-indazol-3-yl)-5H-pyrrolo[2,3-b]pyrazine-7-carboxylic acid tert-butylamide] | 444 nM
COC[C@H](C)NC(=O)c1c[nH]c2ncc(-c3cnc4cc(C#N)ccn34)nc12 [Example I-222, 2-(7-Cyano-imidazo[1,2-a]pyridin-3-yl)-5H-pyrrolo[2,3-b]pyrazine-7-carboxylic acid ((S)-2-methoxy-1-methyl-ethyl)-amide] | 9.9 nM
Cn1nc(-c2cnc3[nH]cc(C(=O)N[C@@H]4CCN(Cc5ccccc5)C4)c3n2)c2ccc(F)cc21 [Example I-213, 2-(6-Fluoro-1-methyl-1H-indazol-3-yl)-5H-pyrrolo[2,3-b]pyrazine-7-carboxylic acid ((R)-1-benzyl-pyrrolidin-3-yl)-amide] | 76.1 nM
N#CC1CCN(C(=O)[C@H](NC(=O)c2c[nH]c3ncc(-n4ncc5cc(Cl)c(Cl)cc54)nc23)C2CC2)CC1 [Example I-68, 2-(5,6-Dichloro-indazol-1-yl)-5H-pyrrolo[2,3-b]pyrazine-7-carboxylic acid [(R)-2-(4-cyano-piperidin-1-yl)-1-cyclopropyl-2-oxo-ethyl]-amide] | 5.75 nM
Cn1nc(-c2cnc3[nH]cc(C(=O)N[C@@H]4CCCN(S(C)(=O)=O)C4)c3n2)c2ccc(Cl)cc21 [Example I-15, 2-(6-Chloro-1-methyl-1H-indazol-3-yl)-5H-pyrrolo[2,3-b]pyrazine-7-carboxylic acid ((R)-1-methanesulfonyl-piperidin-3-yl)-amide] | 13.6 nM
CC(NC(=O)c1c[nH]c2ncc(-c3nn(C)c4cc(F)ccc34)nc12)[C@H]1C[C@H](C#N)C1 (stereo partly drawn) [Example I-74, 2-(6-Fluoro-1-methyl-1H-indazol-3-yl)-5H-pyrrolo[2,3-b]pyrazine-7-carboxylic acid [1-(trans-3-cyano-cyclobutyl)-ethyl]-amide] | 9.35 nM
Cn1nc(-c2cnc3[nH]cc(C(=O)NC(C)(C)C)c3n2)c2cc(OC(F)F)ccc21 [Example I-284, 2-(5-Difluoromethoxy-1-methyl-1H-indazol-3-yl)-5H-pyrrolo[2,3-b]pyrazine-7-carboxylic acid tert-butylamide] | 71.2 nM
C[C@H](NC(=O)c1c[nH]c2ncc(-c3nn(C)c4cc(F)ccc34)nc12)c1ncco1 [Example I-51, 2-(6-Fluoro-1-methyl-1H-indazol-3-yl)-5H-pyrrolo[2,3-b]pyrazine-7-carboxylic acid ((S)-1-oxazol-2-yl-ethyl)-amide] | 9.11 nM
Cn1nc(-c2cnc3[nH]cc(C(=O)NC4CCCC(=O)C4)c3n2)c2ccc(Cl)cc21 (stereo not drawn) [Example I-147, 2-(6-Chloro-1-methyl-1H-indazol-3-yl)-5H-pyrrolo[2,3-b]pyrazine-7-carboxylic acid (3-oxo-cyclohexyl)-amide] | 38.4 nM
COC[C@H](C)NC(=O)c1c[nH]c2ncc(-c3nn(C)c4cc(Cl)cc(F)c34)nc12 [Example I-170, 2-(6-Chloro-4-fluoro-1-methyl-1H-indazol-3-yl)-5H-pyrrolo[2,3-b]pyrazine-7-carboxylic acid ((S)-2-methoxy-1-methyl-ethyl)-amide] | 7.12 nM
C[C@@H](CO)NC(=O)c1c[nH]c2ncc(-c3nn(C)c4cc(Cl)ccc34)nc12 [Example I-164, 2-(6-Chloro-1-methyl-1H-indazol-3-yl)-5H-pyrrolo[2,3-b]pyrazine-7-carboxylic acid ((S)-2-hydroxy-1-methyl-ethyl)-amide] | 17 nM
C[C@@H](NC(=O)c1c[nH]c2ncc(-c3nn(C)c4cc(F)ccc34)nc12)C1(C#N)CCCC1 [Example I-100, 2-(6-Fluoro-1-methyl-1H-indazol-3-yl)-5H-pyrrolo[2,3-b]pyrazine-7-carboxylic acid [(R)-1-(1-cyano-cyclopentyl)-ethyl]-amide] | 156 nM
CO[C@@H](C)CNC(=O)c1c[nH]c2ncc(-c3nn(C)c4cc(F)ccc34)nc12 [Example I-135, 2-(6-Fluoro-1-methyl-1H-indazol-3-yl)-5H-pyrrolo[2,3-b]pyrazine-7-carboxylic acid ((S)-2-methoxy-propyl)-amide] | 6.9 nM
Cn1nc(-c2cnc3[nH]cc(C(=O)NC4(c5cccc(Br)c5)CCC4)c3n2)c2ccc(F)cc21 [Example I-209, 2-(6-Fluoro-1-methyl-1H-indazol-3-yl)-5H-pyrrolo[2,3-b]pyrazine-7-carboxylic acid [1-(3-bromo-phenyl)-cyclobutyl]-amide] | > 1000 nM and 830 nM

The next lines start with the values.

IC50 | SMILES
3.89 nM | CC[C@@H](C)NC(=O)c1c[nH]c2ncc(-c3nn(C)c4cc(F)ccc34)nc12 [Example I-180, 2-(6-Fluoro-1-methyl-1H-indazol-3-yl)-5H-pyrrolo[2,3-b]pyrazine-7-carboxylic acid ((R)-sec-butyl)-amide]
2.12 nM | COC[C@H](C)NC(=O)c1c[nH]c2ncc(-c3nn(C)c4cc(F)c(F)cc34)nc12 [Example I-212, 2-(5,6-Difluoro-1-methyl-1H-indazol-3-yl)-5H-pyrrolo[2,3-b]pyrazine-7-carboxylic acid ((S)-2-methoxy-1-methyl-ethyl)-amide]
1.23 nM | C[C@@H](NC(=O)c1c[nH]c2ncc(-c3nn(C)c4cc(Cl)c(Cl)cc34)nc12)C(=O)N1CC(C#N)C1 [Example I-6, 2-(5,6-Dichloro-1-methyl-1H-indazol-3-yl)-5H-pyrrolo[2,3-b]pyrazine-7-carboxylic acid [(R)-2-(3-cyano-azetidin-1-yl)-1-methyl-2-oxo-ethyl]-amide]
1.45 nM | C[C@@H](NC(=O)c1c[nH]c2ncc(-c3nn(C)c4cc(Cl)c(F)cc34)nc12)C(=O)N1CC(C#N)C1 [Example I-30, 2-(6-Chloro-5-fluoro-1-methyl-1H-indazol-3-yl)-5H-pyrrolo[2,3-b]pyrazine-7-carboxylic acid [(R)-2-(3-cyano-azetidin-1-yl)-1-methyl-2-oxo-ethyl]-amide]
0.375 nM | COC[C@H](C)NC(=O)c1c[nH]c2ncc(-c3ncn4cc(F)ccc34)nc12 [Example I-41, 2-(6-Fluoro-imidazo[1,5-a]pyridin-1-yl)-5H-pyrrolo[2,3-b]pyrazine-7-carboxylic acid ((S)-2-methoxy-1-methyl-ethyl)-amide]
2.08 nM | CCCn1nc(-c2cnc3[nH]cc(C(=O)N[C@H](C)C(=O)N4CC(C#N)C4)c3n2)c2ccc(Cl)cc21 [Example I-92, 2-(6-Chloro-1-propyl-1H-indazol-3-yl)-5H-pyrrolo[2,3-b]pyrazine-7-carboxylic acid [(R)-2-(3-cyano-azetidin-1-yl)-1-methyl-2-oxo-ethyl]-amide]
5.03 nM | CC(CC(F)(F)F)NC(=O)c1c[nH]c2ncc(-c3nn(C)c4cc(F)ccc34)nc12 (stereo not drawn) [Example I-185, 2-(6-Fluoro-1-methyl-1H-indazol-3-yl)-5H-pyrrolo[2,3-b]pyrazine-7-carboxylic acid (3,3,3-trifluoro-1-methyl-propyl)-amide]
3.13 nM | CC(C)n1nc(-c2cnc3[nH]cc(C(=O)N[C@H](C)C(=O)N4CC(C#N)C4)c3n2)c2ccc(Cl)cc21 [Example I-91, 2-(6-Chloro-1-isopropyl-1H-indazol-3-yl)-5H-pyrrolo[2,3-b]pyrazine-7-carboxylic acid [(R)-2-(3-cyano-azetidin-1-yl)-1-methyl-2-oxo-ethyl)-amide]
1.25 nM | C[C@@H](NC(=O)c1c[nH]c2ncc(-c3nc(S(C)(=O)=O)n4cc(F)ccc34)nc12)C(=O)N1CC(C#N)C1 [Example I-42, 2-(6-Fluoro-3-methanesulfonyl-imidazo[1,5-a]pyridin-1-yl)-5H-pyrrolo[2,3-b]pyrazine-7-carboxylic acid [(R)-2-(3-cyano-azetidin-1-yl)-1-methyl-2-oxo-ethyl]-amide]
0.49 nM | COC[C@H](C)NC(=O)c1c[nH]c2ncc(-c3nn(Cc4cccnc4)c4cc(Cl)ccc34)nc12 [Example I-235, 2-(6-Chloro-1-pyridin-3-ylmethyl-1H-indazol-3-yl)-5H-pyrrolo[2,3-b]pyrazine-7-carboxylic acid ((S)-2-methoxy-1-methyl-ethyl)-amide]
1.15 nM | COCC(C)NC(=O)c1c[nH]c2ncc(-c3nn(C)c4cc(Cl)ccc34)nc12 (stereo not drawn) [Example I-152, 2-(6-Chloro-1-methyl-1H-indazol-3-yl)-5H-pyrrolo[2,3-b]pyrazine-7-carboxylic acid (2-methoxy-1-methyl-ethyl)-amide]
